Laboratory results: ChEMBL document CHEMBL3585283, “Synthesis and evaluation of a series of quinolinyl trans-cyanostilbene analogs as anticancer agents” (2014)
The source made the active and inactive calls. The calls are words filed in the database; no cut-off is given here.

What was measured:
[1] = Antitumor activity against human LOXIMVI cells after 48 hrs; format: functional; conditions: LOX IMVI
[2] = test system: M14; assay: Antitumor activity against human M14 cells after 48 hrs; format: functional; conditions: M14, 48 h
[3] = test system: IGROV-1; assay: Antitumor activity against human IGROV1 cells after 48 hrs; format: functional; conditions: IGROV-1, 48 h
[4] = test system: MDA-MB-231; assay: Antitumor activity against human MDA-MB-231 cells after 48 hrs; format: functional; conditions: MDA-MB-231, 48 h
[5] = test system: ACHN; assay: Antitumor activity against human ACHN cells after 48 hrs; format: functional
[6] = test system: NCI-H322M; assay: Antitumor activity against human NCI-H322M cells after 48 hrs; format: functional
[7] = test system: SR; assay: Antitumor activity against human SR cells after 48 hrs; format: functional
[8] = test system: UO-31; assay: Antitumor activity against human UO31 cells after 48 hrs; format: functional; conditions: UO-31, 48 h
[9] = test system: HOP-62; assay: Antitumor activity against human HOP62 cells after 48 hrs; format: functional; conditions: HOP-62, 48 h
[10] = test system: SW-620; assay: Antitumor activity against human SW620 cells after 48 hrs; format: functional; conditions: SW-620, 48 h
[11] = test system: A549; assay: Antitumor activity against human A549 cells after 48 hrs; format: functional; conditions: A549, 48 h
[12] = Antitumor activity against human MOLT4 cells after 48 hrs; format: functional; conditions: MOLT-4, 48 h
[13] = test system: NCI-H226; assay: Antitumor activity against human NCI-H226 cells after 48 hrs; format: functional; conditions: NCI-H226, 48 h
[14] = test system: K562; assay: Antitumor activity against human K562 cells after 48 hrs; format: functional; conditions: K562, 48 h
[15] = Antitumor activity against human COLO205 cells after 48 hrs; format: functional; conditions: COLO 205, 48 h
[16] = test system: SNB-75; assay: Antitumor activity against human SNB75 cells after 48 hrs; format: functional; conditions: SNB-75, 48 h
[17] = test system: SN12C; assay: Antitumor activity against human SN12C cells after 48 hrs; format: functional
[18] = test system: HCT-116; assay: Antitumor activity against human HCT116 cells after 48 hrs; format: functional; conditions: HCT-116, 48 h
[19] = Antitumor activity against human HCC2998 cells after 48 hrs; format: functional; conditions: HCC 2998, 48 h
[20] = test system: CCRF-CEM; assay: Antitumor activity against human CCRF-CEM cells after 48 hrs; format: functional
[21] = Antitumor activity against human RPMI8226 cells after 48 hrs; format: functional; conditions: RPMI-8226, 48 h
[22] = Antitumor activity against human HOP92 cells after 48 hrs; format: functional; conditions: HOP-92, 48 h
[23] = Antitumor activity against human BT549 cells after 48 hrs; format: functional; conditions: BT-549, 48 h
[24] = test system: OVCAR-5; assay: Antitumor activity against human OVCAR5 cells after 48 hrs; format: functional; conditions: OVCAR-5, 48 h
[25] = Antitumor activity against human RXF393 cells after 48 hrs; format: functional; conditions: RXF 393, 48 h
[26] = test system: KM12; assay: Antitumor activity against human KM12 cells after 48 hrs; format: functional; conditions: KM12, 48 h
[27] = test system: MDA-MB-435; assay: Antitumor activity against human MDA-MB-435 cells after 48 hrs; format: functional; conditions: MDA-MB-435, 48 h
[28] = test system: UACC-62; assay: Antitumor activity against human UACC62 cells after 48 hrs; format: functional; conditions: UACC-62, 48 h
[29] = test system: OVCAR-4; assay: Antitumor activity against human OVCAR4 cells after 48 hrs; format: functional; conditions: OVCAR-4, 48 h
[30] = test system: OVCAR-3; assay: Antitumor activity against human OVCAR3 cells after 48 hrs; format: functional; conditions: OVCAR-3, 48 h
[31] = test system: NCI-H23; assay: Antitumor activity against human NCI-H23 cells after 48 hrs; format: functional; conditions: NCI-H23, 48 h
[32] = test system: UACC-257; assay: Antitumor activity against human UACC257 cells after 48 hrs; format: functional; conditions: UACC-257, 48 h
[33] = test system: NCI-H522; assay: Antitumor activity against human NCI-H522 cells after 48 hrs; format: functional; conditions: NCI-H522, 48 h
[34] = Antitumor activity against human SF539 cells after 48 hrs; format: functional; conditions: SF-539, 48 h
[35] = test system: SK-MEL-2; assay: Antitumor activity against human SK-MEL-2 cells after 48 hrs; format: functional; conditions: SK-MEL-2, 48 h
[36] = test system: SF-268; assay: Antitumor activity against human SF268 cells after 48 hrs; format: functional; conditions: SF-268, 48 h
[37] = test system: MCF7; assay: Antitumor activity against human MCF7 cells after 48 hrs; format: functional; conditions: MCF7, 48 h
[38] = test system: PC-3; assay: Antitumor activity against human PC3 cells after 48 hrs; format: functional; conditions: PC-3, 48 h
[39] = test system: CAKI-1; assay: Antitumor activity against human Caki1 cells after 48 hrs; format: functional; conditions: CAKI-1, 48 h
[40] = test system: HL-60(TB); assay: Antitumor activity against human HL-60(TB) cells after 48 hrs; format: functional; conditions: HL-60, 48 h
[41] = Antitumor activity against human NCI-ADR-RES cells after 48 hrs; format: functional
[42] = test system: Malme-3M; assay: Antitumor activity against human MALME-3M cells after 48 hrs; format: functional
[43] = test system: T47D; assay: Antitumor activity against human T47D cells after 48 hrs; format: functional
[44] = test system: U-251; assay: Antitumor activity against human U251 cells after 48 hrs; format: functional; conditions: U-251, 48 h
[45] = test system: TK-10; assay: Antitumor activity against human TK10 cells after 48 hrs; format: functional; conditions: TK-10, 48 h
[46] = test system: SNB-19; assay: Antitumor activity against human SNB19 cells after 48 hrs; format: functional; conditions: SNB-19, 48 h
[47] = test system: SK-MEL-28; assay: Antitumor activity against human SK-MEL-28 cells after 48 hrs; format: functional; conditions: SK-MEL-28, 48 h
[48] = test system: DU-145; assay: Antitumor activity against human DU145 cells after 48 hrs; format: functional; conditions: DU-145, 48 h
[49] = Antitumor activity against human Hs578T cells after 48 hrs; format: functional; conditions: Hs-578T
[50] = test system: A498; assay: Antitumor activity against human A498 cells after 48 hrs; format: functional; conditions: A498, 48 h
[51] = test system: NCI-H460; assay: Antitumor activity against human NCI-H460 cells after 48 hrs; format: functional; conditions: NCI-H460, 48 h
[52] = test system: OVCAR-8; assay: Antitumor activity against human OVCAR8 cells after 48 hrs; format: functional; conditions: OVCAR-8, 48 h
[53] = test system: HT-29; assay: Antitumor activity against human HT-29 cells after 48 hrs; format: functional; conditions: HT-29, 48 h
[54] = test system: 786-0; assay: Antitumor activity against human 786-0 cells after 48 hrs; format: functional; conditions: 786-0, 48 h
[55] = test system: SK-MEL-5; assay: Antitumor activity against human SK-MEL-5 cells after 48 hrs; format: functional; conditions: SK-MEL-5, 48 h
[56] = test system: EKVX; assay: Antitumor activity against human EKVX cells after 48 hrs; format: functional, cell-based
[57] = Antitumor activity against human SF295 cells after 48 hrs; format: functional; conditions: SF-295, 48 h
[58] = test system: MDA-MB-468; assay: Antitumor activity against human MDA-MB-468 cells after 48 hrs; format: functional; conditions: MDA-MB-468, 48 h
[59] = test system: SK-OV-3; assay: Antitumor activity against human SKOV3 cells after 48 hrs; format: functional; conditions: SK-OV-3, 48 h
[60] = test system: HCT-15; assay: Antitumor activity against human HCT15 cells after 48 hrs; format: functional; conditions: HCT-15, 48 h

COc1cc(/C(C#N)=C/c2ccc3ccccc3n2)cc(OC)c1OC
GI50 [1]: 766 nM
GI50 [2]: 173 nM
GI50 [3]: 846 nM
GI50 [4]: 943 nM
GI50 [5]: 1040 nM
GI50 [6]: 718 nM
GI50 [7]: inactive
GI50 [8]: 762 nM
GI50 [9]: 567 nM
GI50 [10]: 164 nM
GI50 [11]: 375 nM
GI50 [12]: 488 nM
GI50 [13]: 4780 nM
GI50 [14]: 80 nM
GI50 [15]: 198 nM
GI50 [16]: 182 nM
GI50 [17]: 627 nM
GI50 [18]: 234 nM
GI50 [19]: 610 nM
GI50 [20]: 248 nM
GI50 [21]: 297 nM
GI50 [22]: 736 nM
GI50 [23]: 315 nM
GI50 [24]: 580 nM
GI50 [25]: 271 nM
GI50 [26]: 350 nM
GI50 [27]: 33 nM
GI50 [28]: 92 nM
GI50 [29]: 1430 nM
GI50 [30]: 163 nM
GI50 [31]: 751 nM
GI50 [32]: 761 nM
GI50 [33]: 37.2 nM
GI50 [34]: 197 nM
GI50 [35]: 483 nM
GI50 [36]: 835 nM
GI50 [37]: 275 nM
GI50 [38]: 348 nM
GI50 [39]: 68 nM
GI50 [40]: 223 nM
GI50 [41]: 112 nM
GI50 [42]: inactive
GI50 [43]: 4760 nM
GI50 [44]: 355 nM
GI50 [45]: 4690 nM
GI50 [46]: 578 nM
GI50 [47]: 518 nM
GI50 [48]: 446 nM
GI50 [49]: 689 nM
GI50 [50]: 295 nM
GI50 [51]: 361 nM
GI50 [52]: 446 nM
GI50 [53]: 240 nM
GI50 [54]: 445 nM
GI50 [55]: 243 nM
GI50 [56]: inactive
GI50 [57]: 277 nM
GI50 [58]: 243 nM
GI50 [59]: 524 nM
GI50 [60]: 319 nM

COc1cc(OC)cc(/C(C#N)=C/c2cnc3ccccc3c2)c1
GI50 [1]: 672 nM
GI50 [2]: 310 nM
GI50 [3]: 3500 nM
GI50 [4]: 1150 nM
GI50 [5]: 1190 nM
GI50 [6]: 903 nM
GI50 [7]: inactive
GI50 [9]: 793 nM
GI50 [10]: 352 nM
GI50 [11]: 556 nM
GI50 [12]: 378 nM
GI50 [13]: 62200 nM
GI50 [14]: 243 nM
GI50 [15]: 398 nM
GI50 [16]: 224 nM
GI50 [17]: 661 nM
GI50 [18]: 420 nM
GI50 [19]: 1450 nM
GI50 [20]: 332 nM
GI50 [21]: 332 nM
GI50 [22]: 3090 nM
GI50 [23]: 388 nM
GI50 [24]: 587 nM
GI50 [25]: 297 nM
GI50 [26]: 409 nM
GI50 [27]: 53 nM
GI50 [28]: 357 nM
GI50 [29]: 1730 nM
GI50 [30]: 279 nM
GI50 [31]: 747 nM
GI50 [32]: 12800 nM
GI50 [33]: 69 nM
GI50 [34]: 289 nM
GI50 [35]: 709 nM
GI50 [36]: 654 nM
GI50 [37]: 333 nM
GI50 [38]: 506 nM
GI50 [39]: 223 nM
GI50 [40]: 234 nM
GI50 [41]: 224 nM
GI50 [42]: 635 nM
GI50 [43]: 628 nM
GI50 [44]: 374 nM
GI50 [45]: 17700 nM
GI50 [46]: 614 nM
GI50 [47]: 1400 nM
GI50 [48]: 505 nM
GI50 [49]: 715 nM
GI50 [50]: 333 nM
GI50 [51]: 362 nM
GI50 [52]: 584 nM
GI50 [53]: 362 nM
GI50 [54]: 484 nM
GI50 [55]: 249 nM
GI50 [56]: inactive
GI50 [57]: 243 nM
GI50 [58]: 217 nM
GI50 [59]: 576 nM
GI50 [60]: 455 nM
